A word on the EC50: it is the concentration that produces a half-maximal response.

The structures appear in SMILES notation. Bounds are passed on as bounds.

In this test the target is T1, GLP-1R (Homo sapiens, UniProt P43220).
T1 construct: host or cells: GLP-1R CRE-bla CHO-K1 cells
T1 sequence (P43220 24-463): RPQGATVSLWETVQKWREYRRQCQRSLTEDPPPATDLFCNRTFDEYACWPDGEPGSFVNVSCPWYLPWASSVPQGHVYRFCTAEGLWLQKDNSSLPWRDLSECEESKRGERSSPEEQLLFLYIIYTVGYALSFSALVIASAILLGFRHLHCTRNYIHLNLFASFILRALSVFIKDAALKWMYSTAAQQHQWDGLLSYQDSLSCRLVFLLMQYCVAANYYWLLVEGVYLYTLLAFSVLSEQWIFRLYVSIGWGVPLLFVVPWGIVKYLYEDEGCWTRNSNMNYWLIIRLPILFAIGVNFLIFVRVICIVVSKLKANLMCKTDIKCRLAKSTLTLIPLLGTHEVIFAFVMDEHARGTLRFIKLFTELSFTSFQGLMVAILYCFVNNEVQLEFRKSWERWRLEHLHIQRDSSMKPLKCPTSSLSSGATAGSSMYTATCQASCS
T1 sequence (P01275 100-127 partner limits assumed): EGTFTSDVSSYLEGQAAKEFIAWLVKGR
Nature of the test: EC20 GLP-1(9-36) PAM cAMP assay: dose response of compound in the presence of fixed concentration of GLP-1(9-36). Format: cell-based. Particulars: dose response of compound in presence of fixed concentration of GLP-1(9-36), GLP-1R CRE-bla CHO-K1 cells, read-out: EC20 GLP-1(9-36) PAM EC50. A digest of the protocol:
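Positive allosteric modulation read as cAMP accumulation: compound titrations (12 points) combined with an EC20 level of GLP-1(9-36) on CHO-K1 GLP-1R CRE-bla cells, IBMX present, 30 min, 37 °C, pH 7.4 buffer. Luminescence converted to cAMP via standards; non-linear fit gave EC50 and Emax.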
In the case of `CCc1ccc(/C=C/c2cnc(-c3ccc(C[C@H](NC(=O)c4ccc(C(C)(C)C)s4)C(=O)N4CC(C(=O)O)C4)cc3)nc2)cc1` [Compound 1092], the 50% effective concentration (EC50) is 800 to 2500 nM.

Regarding `Cc1cc(-c2cnc(-c3ccc(C[C@H](NC(=O)c4ccc(C(C)(C)C)s4)C(=O)N4CC(C(=O)O)C4)cc3)nc2)ccc1OC(C)C` [Compound 1093], the EC50 was below 800 nM.

Take `CCCCCCCOc1ccc(-c2cnc(-c3ccc(C[C@H](NC(=O)c4ccn(C(C)(C)C)c4)C(=O)N4CC[C@H](C(=O)O)C4)cc3)nc2)cc1` [Compound 1094]: the half-maximal effective concentration (EC50) is below 800 nM.

Take `CCCCCCCOc1ccc(-c2cnc(-c3ccc(C[C@H](NC(=O)Cc4ccc(OCCCC)cc4)C(=O)N4CC[C@H](C(=O)O)C4)cc3)nc2)cc1` [Compound 1095]: the EC50 lay in the range of 2500 to 5000 nM.

For `CCCCCCCOc1ccc(-c2cnc(-c3ccc(C[C@H](NC(=O)c4ccc(O)c(F)c4)C(=O)N4CC[C@H](C(=O)O)C4)cc3)nc2)cc1` [Compound 1096], the EC50 was 800 to 2500 nM.

Turning to `CCCCCCCOc1ccc(-c2cnc(-c3ccc(C[C@H](NC(=O)c4ccc(OCCC)cc4)C(=O)N4CC[C@H](C(=O)O)C4)cc3)nc2)cc1` [Compound 1097], the EC50 was in the range of 800 to 2500 nM.

Consider `CCCCCCCOc1ccc(-c2cnc(-c3ccc(C[C@H](NC(=O)c4ccc(CC)cn4)C(=O)N4CC[C@H](C(=O)O)C4)cc3)nc2)cc1` [Compound 1098], for which the EC50 is 2500 to 5000 nM.

Consider `CCCCCCCOc1ccc(-c2cnc(-c3ccc(C[C@H](NC(=O)c4cnn(C(C)(C)C)c4)C(=O)N4CC(C(=O)O)C4)cc3)nc2)cc1` [Compound 1099], for which the EC50 is 800 to 2500 nM.

With `CCCCCCCOc1ccc(-c2cnc(-c3ccc(C[C@H](NC(=O)c4ccc(C(C)(C)C)cc4OCC)C(=O)N4CC(C(=O)O)C4)cc3)nc2)cc1` [Compound 1100], the EC50 lay in the range of 2500 to 5000 nM.

With `CCCCCCCOc1ccc(-c2cnc(-c3ccc(C[C@H](NC(=O)c4oc(C(C)(C)C)cc4C)C(=O)N4CC(C(=O)O)C4)cc3)nc2)cc1` [Compound 1101], the EC50 was in the range of 800 to 2500 nM.

For `CCCCCCCOc1ccc(-c2cnc(-c3ccc(C[C@H](NC(=O)Cc4ccc(OCCCC)cc4)C(=O)N4CC(C(=O)O)C4)cc3)nc2)cc1` [Compound 1102], the concentration giving a half-maximal response (EC50) lay within 800 to 2500 nM.

Turning to `CCCCCCCOc1ccc(-c2cnc(-c3ccc(C[C@H](NC(=O)/C=C/c4ccc(OC)cc4)C(=O)N4CC(C(=O)O)C4)cc3)nc2)cc1` [Compound 1103], the EC50 fell in the range of 800 to 2500 nM.

Regarding `CCCCCCCOc1ccc(-c2cnc(-c3ccc(C[C@H](NC(=O)c4ccc(O)c(F)c4)C(=O)N4CC(C(=O)O)C4)cc3)nc2)cc1` [Compound 1104], the EC50 was in the range of 800 to 2500 nM.

For `CCCCCCCOc1ccc(-c2cnc(-c3ccc(C[C@H](NC(=O)c4ccc(OCCC)cc4)C(=O)N4CC(C(=O)O)C4)cc3)nc2)cc1` [Compound 1105], the EC50 fell in the range of 2500 to 5000 nM.

`CCCCCCCOc1ccc(-c2cnc(-c3ccc(C[C@H](NC(=O)c4ccc(CC)cn4)C(=O)N4CC(C(=O)O)C4)cc3)nc2)cc1` [Compound 1106]: the EC50 was in the range of 2500 to 5000 nM.

For the molecule `CCCCCCCOc1ccc(-c2cnc(-c3ccc(C[C@H](NC(=O)c4ccc(CCC)s4)C(=O)N4CC(C(=O)O)C4)cc3)nc2)cc1` [Compound 1107], the concentration for a half-maximal effect (EC50) lay within 800 to 2500 nM.

For the molecule `CCCCCCCOc1ccc(-c2cnc(-c3ccc(C[C@H](NC(=O)c4ccc(CC)cc4)C(=O)N4CC(C(=O)O)C4)cc3)nc2)cc1` [Compound 1108], the half-maximal effective concentration (EC50) is below 800 nM.

As to `CCCCCCCOc1ccc(-c2cnc(-c3ccc(C[C@H](NC(=O)c4ccc(OC)cc4)C(=O)N4CC(C(=O)O)C4)cc3)nc2)cc1` [Compound 1109], the EC50 was in the range of 800 to 2500 nM.

Consider `CCCCCCCOc1ccc(-c2cnc(-c3ccc(C[C@H](NC(=O)c4ccc(CC)s4)C(=O)N4CC(C(=O)O)C4)cc3)nc2)cc1` [Compound 1110], for which the EC50 fell in the range of 800 to 2500 nM.

Consider `CCCCCCCOc1ccc(-c2cnc(-c3ccc(C[C@H](NC(=O)c4ccc(C5CC5)cc4)C(=O)N4CC(C(=O)O)C4)cc3)nc2)cc1` [Compound 1111], for which the EC50 was in the range of 800 to 2500 nM.

Regarding `CCCCCCCOc1ccc(-c2cnc(-c3ccc(C[C@H](NC(=O)c4ccc(CCC)cc4)C(=O)N4CC(C(=O)O)C4)cc3)nc2)cc1` [Compound 1112], the EC50 lay within 800 to 2500 nM.

With `CCCCCCCOc1ccc(-c2cnc(-c3ccc(C[C@H](NC(=O)c4ccc(C(C)C)cc4)C(=O)N4CC(C(=O)O)C4)cc3)nc2)cc1` [Compound 1113], the EC50 was 800 to 2500 nM.

Turning to `CCCCCCCOc1ccc(-c2cnc(-c3ccc(C[C@H](NC(=O)c4ccc(OCC)cc4)C(=O)N4CC(C(=O)O)C4)cc3)nc2)cc1` [Compound 1114], the EC50 lay within 800 to 2500 nM.

For `CCCCCCCOc1ccc(-c2cnc(-c3ccc(C[C@H](NC(=O)c4ccc(CCCC)cc4)C(=O)N4CC(C(=O)O)C4)cc3)nc2)cc1` [Compound 1115], the EC50 lay within 800 to 2500 nM.

`CCCCCCCOc1ccc(-c2cnc(-c3ccc(C[C@H](NC(=O)c4ccc(CC(C)C)cc4)C(=O)N4CC(C(=O)O)C4)cc3)nc2)cc1` [Compound 1116]: the EC50 fell in the range of 800 to 2500 nM.

Regarding `CCCCCCCOc1ccc(-c2cnc(-c3ccc(C[C@H](NC(=O)c4ccc(C(C)(C)C)nc4)C(=O)N4CC(C(=O)O)C4)cc3)nc2)cc1` [Compound 1117], the EC50 was in the range of 800 to 2500 nM.

On to `CCCCCCCOc1ccc(-c2cnc(-c3ccc(C[C@H](NC(=O)c4cnc(C(C)(C)C)nc4)C(=O)N4CC(C(=O)O)C4)cc3)nc2)cc1` [Compound 1118], for which the half-maximal effective concentration (EC50) lay within 800 to 2500 nM.

For `CCCCCCCOc1ccc(-c2cnc(-c3ccc(C[C@H](NC(=O)c4ccc(CC(C)C)s4)C(=O)N4CC(C(=O)O)C4)cc3)nc2)cc1` [Compound 1119], the EC50 is 800 to 2500 nM.

Take `CCCCCCCOc1ccc(-c2cnc(-c3ccc(C[C@H](NC(=O)c4ccc(C(C)(C)C)c(OC)c4)C(=O)N4CC(C(=O)O)C4)cc3)nc2)cc1` [Compound 1120]: the EC50 fell in the range of 2500 to 5000 nM.

With `CCCCCCCOc1ccc(-c2cnc(-c3ccc(C[C@H](NC(=O)c4ccc(C(C)(C)CC)cc4)C(=O)N4CC(C(=O)O)C4)cc3)nc2)cc1` [Compound 1121], the EC50 is 800 to 2500 nM.

On to `CCCCCCCOc1ccc(-c2cnc(-c3ccc(C[C@H](NC(=O)c4cccc(C(C)(C)C)c4)C(=O)N4CC(C(=O)O)C4)cc3)nc2)cc1` [Compound 1122], for which the EC50 was in the range of 5000 to 10000 nM.

On to `CC(C)(C)c1ccc(C(=O)N[C@@H](Cc2ccc(-c3ncc(-c4ccc(C5CCCC5)cc4)cn3)cc2)C(=O)N2CCC[C@H]2C(=O)O)s1` [Compound 1123], for which the EC50 was in the range of 800 to 2500 nM.

In the case of `CC(C)(C)c1ccc(C(=O)N[C@@H](Cc2ccc(-c3ncc(-c4ccc(-c5ccccc5)cc4)cn3)cc2)C(=O)N2CCC[C@H]2C(=O)O)s1` [Compound 1124], the EC50 is below 800 nM.

For the molecule `Cc1ccc(/C=C/c2cnc(-c3ccc(C[C@H](NC(=O)c4ccc(C(C)(C)C)s4)C(=O)N4CCC[C@H]4C(=O)O)cc3)nc2)cc1` [Compound 1125], the EC50 fell in the range of 800 to 2500 nM.

Regarding `CCc1ccc(/C=C/c2cnc(-c3ccc(C[C@H](NC(=O)c4ccc(C(C)(C)C)s4)C(=O)N4CCC[C@H]4C(=O)O)cc3)nc2)cc1` [Compound 1126], the concentration giving a half-maximal response (EC50) lay within 800 to 2500 nM.

`Cc1cc(-c2cnc(-c3ccc(C[C@H](NC(=O)c4ccc(C(C)(C)C)s4)C(=O)N4CCC[C@H]4C(=O)O)cc3)nc2)ccc1OC(C)C` [Compound 1127]: the EC50 is 800 to 2500 nM.

`CC[C@H]1CC[C@H](c2ccc(-c3cnc(-c4ccc(C[C@H](NC(=O)c5ccc(C(C)(C)C)s5)C(=O)N5CCC[C@H]5C(=O)O)cc4)nc3)cc2)CC1` [Compound 1128, ((S)-2-(5-(tert-butyl)thiophene-2-carboxamido)-3-(4-(5-(4-((1r,4r)-4-ethylcyclohexyl)phenyl)pyrimidin-2-yl)phenyl)propanoyl)-L-proline]: the EC50 was below 800 nM.

In the case of `Cc1cc(-c2cnc(-c3ccc(C[C@H](NC(=O)c4ccc(C(C)(C)C)s4)C(=O)N[C@H](C)C(=O)O)cc3)nc2)ccc1-c1ccccc1` [Compound 1129], the concentration giving a half-maximal response (EC50) lay in the range of 800 to 2500 nM.

Consider `CCOC1CC(c2ccc(-c3cnc(-c4ccc(C[C@H](NC(=O)c5ccc(C(C)(C)C)s5)C(=O)N[C@H](C)C(=O)O)cc4)nc3)cc2)C1` (stereo partly drawn) [Compound 1130], for which the EC50 was 800 to 2500 nM.

`Cc1cc(-c2ccccc2)ccc1-c1cnc(-c2ccc(C[C@H](NC(=O)c3ccc(C(C)(C)C)s3)C(=O)N[C@H](C)C(=O)O)cc2)nc1` [Compound 1131]: the EC50 fell in the range of 800 to 2500 nM.

In the case of `C[C@@H](NC(=O)[C@H](Cc1ccc(-c2ncc(-c3ncc(-c4ccccc4)cn3)cn2)cc1)NC(=O)c1ccc(C(C)(C)C)s1)C(=O)O` [Compound 1132], the EC50 lay in the range of 800 to 2500 nM.

As to `C[C@@H](NC(=O)[C@H](Cc1ccc(-c2ncc(-c3ccc(-c4ccccc4F)cc3)cn2)cc1)NC(=O)c1ccc(C(C)(C)C)s1)C(=O)O` [Compound 1133], the 50% effective concentration (EC50) is below 800 nM.

`C[C@@H](NC(=O)[C@H](Cc1ccc(-c2ncc(-c3ccc(-c4cccc(F)c4)cc3)cn2)cc1)NC(=O)c1ccc(C(C)(C)C)s1)C(=O)O` [Compound 1134]: the EC50 is 800 to 2500 nM.

In the case of `CCCCc1ccc(-c2ccc(-c3cnc(-c4ccc(C[C@H](NC(=O)c5ccc(C(C)(C)C)s5)C(=O)N[C@H](C)C(=O)O)cc4)nc3)cc2)cc1` [Compound 1135], the half-maximal effective concentration (EC50) was in the range of 800 to 2500 nM.

On to `CCCc1ccc(-c2ccc(-c3cnc(-c4ccc(C[C@H](NC(=O)c5ccc(C(C)(C)C)s5)C(=O)N[C@H](C)C(=O)O)cc4)nc3)cc2)cc1` [Compound 1136], for which the EC50 lay in the range of 800 to 2500 nM.

Take `CC[C@H]1CC[C@H](c2ccc(-c3cnc(-c4ccc(C[C@H](NC(=O)c5ccc(C(C)(C)C)s5)C(=O)N5CC[C@H](C(=O)O)C5)cc4)nc3)cc2)CC1` [Compound 1137]: the EC50 is below 800 nM.

As to `Cc1ccc(-c2ccc(-c3cnc(-c4ccc(C[C@H](NC(=O)c5ccc(C(C)(C)C)s5)C(=O)N[C@H](C)C(=O)O)cc4)nc3)cc2)cc1C` [Compound 1138], the concentration for a half-maximal effect (EC50) is below 800 nM.

Turning to `Cc1ccc(-c2ccc(-c3cnc(-c4ccc(C[C@H](NC(=O)c5ccc(C(C)(C)C)s5)C(=O)N[C@H](C)C(=O)O)cc4)nc3)cc2F)cc1` [Compound 1139], the EC50 is below 800 nM.

For the origin of these results see US10034886B2, “GLP-1 receptor modulators” (Celgene International II SÀRL, priority 2014, dated 2018).
